In US20250296959A1, “B7-H3 TARGETING PEPTIDES AND CONSTRUCTS THEREOF” (Mariana Oncology Inc., priority 2024, published 2025) one finds Kd data, which are given here for nine compounds.

Starred links: 1 amine or outer side, 2 acyl side, 3 side chain; linkers in the order of their positions; H or OH if unused. Positions of bridges follow the written chain, without caps; N, C: chain ends. Non-standard residues stand in square brackets, D forms with d. Residues, ends and D or L forms follow the SMILES beside them. Groups on a side chain read outwards from the residue. ξ: configuration not given here. *: point of attachment. Ala(piperidin-4-yl) = O=C([C@H](CC1CCN([*:3])CC1)N[*:1])[*:2]; DOTA = O=C(O)CN1CCN(CC(=O)O)CCN(CC(=O)*)CCN(CC(=O)O)CC1; Trp(5-F) = N[C@@H](Cc1c[nH]c2ccc(F)cc12)C(=O)O; γGlu = O=C(O)[C@H](CCC(=O)[*:2])N[*:1]; 1Nal = N[C@@H](Cc1cccc2ccccc12)C(=O)O; Ala(4-THP) = N[C@@H](CC1CCOCC1)C(=O)O; Phe(2-F) = N[C@@H](Cc1ccccc1F)C(=O)O; Ile(3-Me) = CCC(C)(C)[C@H](N)C(=O)O; Val(3-OH) = CC(C)(O)[C@H](N)C(=O)O; 4Pal = N[C@@H](Cc1ccncc1)C(=O)O; Tle = CC(C)(C)[C@H](N)C(=O)O; hLeu = CC(C)CC[C@H](N)C(=O)O; NMeS = CN[C@@H](CO)C(=O)O; Nle = CCCC[C@H](N)C(=O)O; ξV = CC(C)C(N)C(=O)O

For this assay, the target named is T1, human 4lg B7-H3 (Homo sapiens, UniProt Q5ZPR3).
T1 sequence (Q5ZPR3 29-534): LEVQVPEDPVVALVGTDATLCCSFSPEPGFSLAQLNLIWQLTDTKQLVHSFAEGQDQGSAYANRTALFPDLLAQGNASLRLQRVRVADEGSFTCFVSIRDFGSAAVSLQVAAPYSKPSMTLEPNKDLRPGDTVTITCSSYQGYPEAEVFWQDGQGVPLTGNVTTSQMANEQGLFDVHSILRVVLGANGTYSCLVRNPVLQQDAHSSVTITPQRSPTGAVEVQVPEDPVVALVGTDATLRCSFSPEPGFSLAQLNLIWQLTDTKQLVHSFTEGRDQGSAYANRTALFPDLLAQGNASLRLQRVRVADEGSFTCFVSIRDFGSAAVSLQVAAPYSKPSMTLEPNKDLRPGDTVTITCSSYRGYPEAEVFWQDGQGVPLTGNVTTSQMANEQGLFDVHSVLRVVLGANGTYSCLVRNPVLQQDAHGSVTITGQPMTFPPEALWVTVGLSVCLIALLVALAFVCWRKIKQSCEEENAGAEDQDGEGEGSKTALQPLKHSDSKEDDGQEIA
Description: Affinity determination by surface plasmon resonance (SPR) to 4Ig B7-H3. The settings on record: 4Ig B7-H3.

Where [1] appears, read: SPR KD—25° C., 25° C. flow cell temperature.
Where [2] appears, read: SPR KD—37° C., 37° C. flow cell temperature.

As to `CCCC[C@H](NC(C)=O)C(=O)N[C@@H](Cc1ccc(O)cc1)C(=O)N[C@H]1CSSC[C@@H](C(=O)N[C@@H](Cc2cccc3ccccc23)C(=O)N[C@@H](Cc2ccccc2)C(=O)N[C@H](C(=O)N[C@H](CCCCNC(=O)CN2CCN(CC(=O)O)CCN(CC(=O)O)CCN(CC(=O)O)CC2)C(N)=O)[C@@H](C)O)NC(=O)[C@H](Cc2ccc(O)cc2)NC(=O)C(C(C)C)NC(=O)[C@H](CC(=O)O)NC(=O)[C@H](Cc2ccc(O)cc2)NC(=O)[C@H](CCCCN)NC(=O)CNC(=O)[C@H](C(C)C)NC1=O` (stereo partly drawn) [compound 128, Ac-Nle-Y-C-V-G-K-Y-D-V-Y-C-1Nal-F-Thr-dLys(DOTA)-CONH2] (Ac-[Nle]YCVGKYD[ξV]YC[1Nal]FT[dK](DOTA)-NH2; disulfide 3-11), the Kd (commonly the constant that tells how readily two partners part at equilibrium) under setting [1] lay within 1 to 10 nM.

Take `CCCC[C@@H]1NC(=O)[C@H](CC(=O)O)NC(=O)[C@H](Cc2ccc(O)cc2)NC(=O)[C@H](CCCCN)NC(=O)CNC(=O)[C@H](C(C)C)NC(=O)[C@@H](NC(=O)[C@H](Cc2ccc(O)cc2)NC(=O)[C@H](CCC(C)C)NC(C)=O)CSSC[C@@H](C(=O)N[C@@H](Cc2c[nH]c3ccc(F)cc23)C(=O)N[C@@H](Cc2ccccc2)C(=O)N[C@H](C(=O)N[C@H](CCCCNC(=O)CN2CCN(CC(=O)O)CCN(CC(=O)O)CCN(CC(=O)O)CC2)C(N)=O)[C@@H](C)O)NC(=O)[C@H](Cc2ccc(O)cc2)NC1=O` [compound 186, Ac-hLeu-Y-C-V-G-K-Y-D-Nle-Y-C-5FW-F-Thr-dLys(DOTA)-CONH2] (Ac-[hLeu]YCVGKYD[Nle]YC[Trp(5-F)]FT[dK](DOTA)-NH2; disulfide 3-11): the equilibrium dissociation constant (Kd) under setting [1] was 1 to 10 nM.

For `CCCC[C@H](NC(C)=O)C(=O)N[C@@H](Cc1ccc(O)cc1)C(=O)N[C@H]1CSSC[C@@H](C(=O)N[C@@H](Cc2c[nH]c3ccccc23)C(=O)N[C@@H](Cc2ccccc2)C(=O)N[C@@H](CCC(N)=O)C(=O)O)NC(=O)[C@H](Cc2ccc(O)cc2)NC(=O)[C@H](C(C)C)NC(=O)[C@H](CC(=O)O)NC(=O)[C@H](Cc2ccc(O)cc2)NC(=O)[C@H](CCCCN)NC(=O)CNC(=O)[C@H](C(C)C)NC1=O` [compound 35, Ac-Nle-Y-C-V-G-K-Y-D-V-Y-C-W-F-gE-CONH2], the Kd under setting [1] fell in the range of 10 to 100 nM.

`CC(=O)N[C@@H](CCC(C)C)C(=O)N[C@@H](Cc1ccc(O)cc1)C(=O)N[C@H]1CSSC[C@@H](C(=O)N[C@@H](Cc2c[nH]c3ccc(F)cc23)C(=O)N[C@@H](Cc2ccccc2F)C(=O)N[C@H](C(=O)N[C@H](CCCCNC(=O)CN2CCN(CC(=O)O)CCN(CC(=O)O)CCN(CC(=O)O)CC2)C(=O)O)C(C)(C)O)NC(=O)[C@H](Cc2ccc(O)cc2)NC(=O)[C@H](C(C)C)NC(=O)[C@H](CC(=O)O)NC(=O)[C@H](CC2CCOCC2)NC(=O)[C@H](CC2CCNCC2)NC(=O)CNC(=O)[C@H](C(C)(C)C)NC1=O` [compound 470, Ac-hLeu-Y-C-Tbg-G-PipAla-ThpA-D-V-Y-C-5FW-2FPhe-hydroxyVal-dLys(DOTA)-COOH] (Ac-[hLeu]YC[Tle]G[Ala(piperidin-4-yl)][Ala(4-THP)]DVYC[Trp(5-F)][Phe(2-F)][Val(3-OH)][dK](DOTA)-OH; disulfide 3-11) gave a Kd under setting [2] of under 1 nM.

As for `CC(=O)N[C@@H](CCC(C)C)C(=O)N[C@@H](Cc1ccc(O)cc1)C(=O)N[C@H]1CSSC[C@@H](C(=O)N[C@@H](Cc2c[nH]c3ccc(F)cc23)C(=O)N[C@@H](Cc2ccccc2)C(=O)N(C)[C@@H](CO)C(N)=O)NC(=O)[C@H](Cc2ccc(O)cc2)NC(=O)[C@H](C(C)C)NC(=O)[C@H](CC(=O)O)NC(=O)[C@H](Cc2ccncc2)NC(=O)[C@H](CCCCNC(=O)CN2CCN(CC(=O)O)CCN(CC(=O)O)CCN(CC(=O)O)CC2)NC(=O)CNC(=O)[C@H](C(C)C)NC1=O` [compound 228, Ac-hLeu-Y-C-V-G-Lys(DOTA)-4PyA-D-V-Y-C-5FW-F-NMeSer-CONH2] (Ac-[hLeu]YCVGK(DOTA)[4Pal]DVYC[Trp(5-F)]F[NMeS]-NH2; disulfide 3-11), under setting [1], the equilibrium dissociation constant (Kd) is 1 to 10 nM.

`CCC(C)(C)[C@@H]1NC(=O)[C@@H](NC(=O)[C@H](Cc2ccc(O)cc2)NC(=O)[C@H](CCC(C)C)NC(C)=O)CSSC[C@@H](C(=O)N[C@@H](Cc2c[nH]c3ccc(F)cc23)C(=O)N[C@@H](Cc2ccccc2)C(=O)N[C@H](C(=O)N[C@H](CCCCNC(=O)CN2CCN(CC(=O)O)CCN(CC(=O)O)CCN(CC(=O)O)CC2)C(=O)O)C(C)(C)O)NC(=O)[C@H](Cc2ccc(O)cc2)NC(=O)[C@H](C(C)C)NC(=O)[C@H](CC(=O)O)NC(=O)[C@H](CC2CCOCC2)NC(=O)[C@H](CC2CCNCC2)NC(=O)CNC1=O` [compound 432, Ac-hLeu-Y-C-betaMelle-G-PipAla-ThpA-D-V-Y-C-5FW-F-hydroxyVal-dLys(DOTA)-COOH] (Ac-[hLeu]YC[Ile(3-Me)]G[Ala(piperidin-4-yl)][Ala(4-THP)]DVYC[Trp(5-F)]F[Val(3-OH)][dK](DOTA)-OH; disulfide 3-11) displayed a Kd under setting [2] of under 1 nM.

Take `CC(=O)N[C@@H](CCC(C)C)C(=O)N[C@@H](Cc1ccc(O)cc1)C(=O)N[C@H]1CSSC[C@@H](C(=O)N[C@@H](Cc2c[nH]c3ccc(F)cc23)C(=O)N[C@@H](Cc2ccccc2)C(=O)N[C@H](C(=O)N[C@H](CCCCNC(=O)CC[C@H](NC(=O)CN2CCN(CC(=O)O)CCN(CC(=O)O)CCN(CC(=O)O)CC2)C(=O)O)C(N)=O)C(C)(C)O)NC(=O)[C@H](Cc2ccc(O)cc2)NC(=O)[C@H](C(C)C)NC(=O)[C@H](CC(=O)O)NC(=O)[C@H](CC2CCOCC2)NC(=O)[C@H](CC2CCNCC2)NC(=O)CNC(=O)[C@H](C(C)(C)C)NC1=O` [compound 452, Ac-hLeu-Y-C-Tbg-G-PipAla-ThpA-D-V-Y-C-5FW-F-hydroxyVal-dLys(gE-DOTA)-CONH2] (Ac-[hLeu]YC[Tle]G[Ala(piperidin-4-yl)][Ala(4-THP)]DVYC[Trp(5-F)]F[Val(3-OH)][dK]([γGlu-DOTA])-NH2; disulfide 3-11): under setting [2], the dissociation constant Kd is under 1 nM.

In turn, `CC(=O)N[C@@H](CCC(C)C)C(=O)N[C@@H](Cc1ccc(O)cc1)C(=O)N[C@H]1CSSC[C@@H](C(=O)N[C@@H](Cc2c[nH]c3ccc(F)cc23)C(=O)N[C@@H](Cc2ccccc2)C(=O)N[C@H](C(=O)N[C@H](CCC(=O)O)C(N)=O)C(C)(C)O)NC(=O)[C@H](Cc2ccc(O)cc2)NC(=O)[C@H](C(C)C)NC(=O)[C@H](CC(=O)O)NC(=O)[C@H](CC2CCOCC2)NC(=O)[C@H](CCCCNC(=O)CN2CCN(CC(=O)O)CCN(CC(=O)O)CCN(CC(=O)O)CC2)NC(=O)CNC(=O)[C@H](C(C)(C)C)NC1=O` [compound 423, Ac-hLeu-Y-C-Tbg-G-Lys(DOTA)-ThpA-D-V-Y-C-5FW-F-hydroxyVal-dGlu-CONH2] (Ac-[hLeu]YC[Tle]GK(DOTA)[Ala(4-THP)]DVYC[Trp(5-F)]F[Val(3-OH)][dE]-NH2; disulfide 3-11) registered a dissociation constant Kd under setting [2] of 1 to 10 nM.

With `CC(=O)N[C@@H](CCC(C)C)C(=O)N[C@@H](Cc1ccc(O)cc1)C(=O)N[C@H]1CSSC[C@@H](C(=O)N[C@@H](Cc2cccc3ccccc23)C(=O)N[C@@H](Cc2ccccc2)C(=O)N2CCC[C@H]2C(=O)N[C@H](CCCCNC(=O)CN2CCN(CC(=O)O)CCN(CC(=O)O)CCN(CC(=O)O)CC2)C(N)=O)NC(=O)[C@H](Cc2ccc(O)cc2)NC(=O)[C@H](C(C)C)NC(=O)[C@H](CC(=O)O)NC(=O)[C@H](Cc2ccc(O)cc2)NC(=O)[C@H](CCCCN)NC(=O)CNC(=O)[C@H](C(C)(C)C)NC1=O` [compound 244, Ac-hLeu-Y-C-Tbg-G-K-Y-D-V-Y-C-1Nal-F-Pro-dLys(DOTA)-CONH2] (Ac-[hLeu]YC[Tle]GKYDVYC[1Nal]FP[dK](DOTA)-NH2; disulfide 3-11), the Kd under setting [1] is under 1 nM.
